This is an account of results in US20130203662A1, “Mini-Hepcidin Peptides and Methods of Using Thereof” (priority 2008, published 2013).

The target in experiment [1] is T1, ferroportin fused to green fluorescent protein (ECR293/Fpn-GFP cells) (Mus musculus, UniProt Q9JHI9).
T1 sequence (Q9JHI9 1-570): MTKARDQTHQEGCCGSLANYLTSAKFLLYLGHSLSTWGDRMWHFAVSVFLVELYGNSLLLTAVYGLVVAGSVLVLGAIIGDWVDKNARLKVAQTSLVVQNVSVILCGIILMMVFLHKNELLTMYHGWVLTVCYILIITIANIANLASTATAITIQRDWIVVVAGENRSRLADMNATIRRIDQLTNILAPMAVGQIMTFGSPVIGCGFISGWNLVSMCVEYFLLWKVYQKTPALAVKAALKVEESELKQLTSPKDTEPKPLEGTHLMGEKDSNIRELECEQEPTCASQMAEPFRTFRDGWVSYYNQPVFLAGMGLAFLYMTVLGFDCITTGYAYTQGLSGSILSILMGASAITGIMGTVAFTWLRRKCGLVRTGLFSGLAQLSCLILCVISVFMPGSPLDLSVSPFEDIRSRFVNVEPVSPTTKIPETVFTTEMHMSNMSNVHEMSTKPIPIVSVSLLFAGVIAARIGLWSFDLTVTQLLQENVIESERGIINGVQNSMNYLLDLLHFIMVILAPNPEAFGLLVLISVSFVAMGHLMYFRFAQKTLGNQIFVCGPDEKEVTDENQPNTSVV
The experiment in a line: Flow cytometry of ferroportin-GFP internalization and degradation in ECR293/Fpn-GFP cells. It counts as cell-based. Particulars: concentration eliciting 50% of maximal loss of fluorescence generated by reference Hep25; 24 hours; read-out: EC50 (the source's name). The protocol: In vitro activity may be measured by the dose-dependent loss of fluorescence of cells engineered to display ferroportin fused to green fluorescent protein as in Nemeth et al. (2006) Blood 107:328-33. […]
FLOW CYTOMETRY. The activity of peptides of the present invention was measured by flow cytometry as previously described. See Nemeth et al. (2006) Blood 107:328-333, which is herein incorporated by reference. ECR293/Fpn-GFP, a cell line stably transfected with a ponasterone-inducible ferroportin construct tagged at the C-terminus with green fluorescent protein was used. See Nemeth et al. (2004) Science 306:2090-2093, which is herein incorporated by reference. Briefly, the cells were plated on poly-D-lysine coated plates in the presence of 20 μM FAC, with or without 10 μM ponasterone. After 24 hours, ponasterone was washed off, and cells were treated with peptides for 24 hours. Cells were then trypsinized and resuspended at 1×10^6 cells/ml, and the intensity of green fluorescence was analyzed by flow cytometry. […] Cells not induced with ponasterone to express Fpn-GFP were used to establish a gate to exclude background fluorescence. Cells induced with ponasterone, but not treated with any peptides, were used as the positive control. Each peptide was tested over the range of concentrations (0, 0.01, 0.03, 0.1, 0.3, 1, 3 and 10 μM). Each peptide treatment was repeated independently 3 to 6 times.
In general terms: In flow cytometry, cells or beads pass a laser one at a time.

In the next experiment the test system is C57/B16J mice. Nature of the experiment: Serum iron assay in mice after peptide administration. The experiment is classed as in vivo.
[2] abbreviates: i.p., 20 nmoles in PBS, 4 hours.
Where [3] appears, read: i.p., 20 nmoles in liposomal solution, 4 hours.
Setting [4] is: i.p., 200 nmoles in PBS, 4 hours.

Square brackets hold non-standard residues; d marks the D form. Peptide text beside a SMILES is read from it. * marks the point of attachment. PEG12 = NCCOCCOCCOCCOCCOCCOCCOCCOCCOCCOCCOCCOCCC(=O)O; Palmitoyl = CCCCCCCCCCCCCCCC(=O)*; Dap = NC[C@H](N)C(=O)O

Experimental for C57/B16J mice: Serum iron assay. The decrease in serum iron after peptide administration is the principal measure of hepcidin activity. Thus, as provided herein, the hepcidin activity of selected peptides of the present invention were assayed in vivo by measuring serum iron in test subjects. […] Two weeks before the experiment, the mice were switched to a diet containing about 2-4 ppm iron (Harlan Teklad, Indianapolis, Ind.) in order to suppress endogenous hepcidin. Peptide stocks were diluted to desired concentrations in sterile phosphate buffered saline (PBS) or other diluents as described next. […] Mice were sacrificed 4 hours later, blood was collected by cardiac puncture, and serum was separated using MICROTAINER tubes (Becton Dickinson, Franklin Lakes, N.J.). Serum iron was determined by using a colorimetric assay (Diagnostic Chemicals, Oxford, Conn.), which was modified for the microplate format so that 10 μl serum was used per measurement. The results were expressed as the percentage of decrease in serum iron when compared with the average value of serum iron levels in PBS-treated mice.

Turning to `CC[C@@H](C)[C@@H](NC(=O)[C@H](N)Cc1ccccc1)C(=O)N[C@H](CS)C(=O)N[C@@H](C(=O)N1CCC[C@@H]1C(=O)N[C@H](Cc1ccccc1)C(=O)N[C@H](Cc1c[nH]cn1)C(=O)N[C@@H](C(=O)N[C@H](CC(=O)O)C(N)=O)[C@H](C)O)[C@H](C)CC` [Pr12], the DC50 in experiment [1] is 900 nM. The serum iron entry with C57/B16J mice (i.p., 50 μg per mouse in PBS, 4 hours, vs PBS) is recorded as “significant decrease in serum iron after 4 hours”.
With `CCCCCCCCCCCCCCCC(=O)NCCOCCOCCOCCOCCOCCOCCOCCOCCOCCOCCOCCOCCC(=O)N[C@H](Cc1ccccc1)C(=O)N[C@@H](C(=O)N[C@H](CS)C(=O)N[C@@H](C(=O)N1CCC[C@@H]1C(=O)N[C@H](Cc1ccccc1)C(=O)N[C@H](Cc1c[nH]cn1)C(=O)N[C@@H](C(=O)N[C@H](CC(=O)O)C(N)=O)[C@H](C)O)[C@H](C)CC)[C@H](C)CC` [Pr27], the serum iron entry in the experiment with C57/B16J mice (setting [2]) is reported as “serum iron decrease comparable to that caused by i.p. administration of 20 nmoles Hep25”; in the experiment with C57/B16J mice (setting [3]), “serum iron decrease similar to that caused by i.p. administration of 20 nmoles Hep25”; in the experiment on C57/B16J mice (setting [4]) it was “even greater decrease in serum iron concentrations”; with C57/B16J mice (oral by gavage, 200 nmoles in cremophore EL solution, vs PBS in same formulation) it was “caused a decrease in serum iron in mice”.
Turning to `CCCCCCCCCCCCCCCC(=O)NC[C@H](NC(=O)CCCCCCCCCCCCCCC)C(=O)NCCOCCOCCOCCOCCOCCOCCOCCOCCOCCOCCOCCOCCC(=O)N[C@H](Cc1ccccc1)C(=O)N[C@@H](C(=O)N[C@H](CS)C(=O)N[C@@H](C(=O)N1CCC[C@@H]1C(=O)N[C@H](Cc1ccccc1)C(=O)N[C@H](Cc1c[nH]cn1)C(=O)N[C@@H](C(=O)N[C@H](CC(=O)O)C(N)=O)[C@H](C)O)[C@H](C)CC)[C@H](C)CC` [Pr28] (Palmitoyl-[Dap](Palmitoyl)[PEG12][dF][dI][dC][dI][dP][dF][dH][dT][dD]-NH2), the serum iron entry in the experiment on C57/B16J mice (setting [3]) is “lesser ability to decrease serum iron than Pr27”.
For `CC[C@@H](C)[C@@H](NC(=O)[C@H](N)Cc1ccccc1)C(=O)N[C@H](CS)C(=O)N[C@@H](C(=O)N1CCC[C@@H]1C(=O)N[C@H](Cc1ccccc1)C(=O)N[C@H](Cc1c[nH]cn1)C(N)=O)[C@H](C)CC` [riHep7ΔDT] (H-[dF][dI][dC][dI][dP][dF][dH]-NH2; N-terminus assumed), the DC50 in experiment [1] was found to be 150 nM. Besides, the serum iron entry is “slightly but not significantly reduced serum iron concentrations” with C57/B16J mice (setting [2]) and “serum iron concentrations significantly lower than those achieved after injection of PBS” in the experiment with C57/B16J mice (setting [4]).
